The text below walks through data of patent US20190192522A1, “INHIBITORS OF THE FIBROBLAST GROWTH FACTOR RECEPTOR 4 IN COMBINATION WITH CYCLIN-DEPENDENT KINASE INHIBITORS” (BLUEPRINT MEDICINES CORPORATION, priority 2016, published 2019).

The test system of series [1] is Huh-7 liver cancer xenograft. In words: Huh-7 liver cancer xenograft efficacy study in female Balb/c nude mice. It is filed as in vivo, Mus Musculus. The settings on record: day eighteen. The procedure:
Each mouse was inoculated subcutaneously at the right flank with tumor cells (5×10^6) in 0.2 ml of PBS supplemented with Matrigel (50:50) for tumor development. The treatments were started on day 11 after tumor inoculation when the average tumor size reached approximately 183 mm^3. Each group consisted of nine tumor-bearing mice.
Tumor size was measured twice weekly in two dimensions using a caliper, and the volume was expressed in mm^3 using the formula: […]
where a and b are the long and short diameters of the tumor, respectively. The tumor size was then used to calculate TGI and T/C values.
TGI was calculated for each group using the formula: […]
where Ti is the average tumor volume of a treatment group on a given day; T0 is the average tumor volume of the treatment group on the day treatment began; Vi is the average tumor volume of the vehicle control group on the same day Ti was measured, and V0 is the average tumor volume of the vehicle group on the day treatment began. The T/C value (in percent) is an indication of antitumor effectiveness. T and C are the mean volumes of the treated and control groups, respectively, on a given day.
Summary statistics, including mean and the standard error of the mean (SEM), were provided for the tumor volume of each group at each time point. For tumor volume comparison among more than two groups, a one-way ANOVA was performed. For comparisons between two groups, a t-test was performed. All analysis was run in GraphPad Prism 5.0, with p<0.05 considered to be statistically significant.
For all groups, at four hours after last dosing, tumor samples were collected in less than one minute after the euthanasia. Four tumors in each group were snap frozen; four tumors were fixed and made into FFPE.

Series [2] deals with LIX-066 human primary hepatocellular carcinoma model. The series is described as follows: In vivo efficacy study in LIX-066 xenograft model. The note with it: bid, po, D28. The arrangement: species or system mice. The procedure: LIX-066 was a human primary hepatocellular carcinoma model from ChemPartner. 130 mice were implanted for this study. Two animals were designated as sentinels; 2 animals were designated as extras.
Animals were monitored daily by general clinical observation throughout the study period. Body weights were recorded twice weekly before randomization and recorded every day during dosing period and the dose was adjusted per body weight. Tumor areas (length×width) was measured two to three times per week by using digimatic callipers throughout the study period and tumor volumes were calculated based on the following formula: tumor volume=[…]. The tumor volume was then used for calculations of net tumor growth inhibition (TGIn) values. The TGIn (in percent) is the indication of anti-tumor activity. TGIn (%)=[1−avTi-0/avCi-0)]×100; avTi-0 is the average of the tumor volume of each mouse in the treatment group on a specific day minus the tumor volume of each mouse in the treatment group on the first day; avCi-0 is the average of the tumor volume of each mouse in the Vehicle control group on a specific day minus the tumor volume of each mouse in the Vehicle control group on the first day of treatment. Efficacy data was graphically represented as the mean tumor volume±standard error of the mean (SEM).
Based on about 40% take rate, 50 animals were selected for efficacy study when their tumors reach appropriate size (100-300 mm^3). Five animals were used for plasma PK standard control. All other animals were euthanized. The 50 animals were randomized (blocked randomization/using Excel software) and divided into the following groups for compound administration:
Group 1: N=10; Vehicle control (PEG400: 20% HP-γ-CD=3:2)
Group 2: N=10; Compound 1, 30 mg/kg, bid, po
Group 3: N=10; Compound 1, 100 mg/kg, bid, po […]
All animals were monitored daily for clinical observation (animal mortality, appearance, spontaneous activity, body posture, and food and water intake. Any lesions and adverse reactions were recorded). […]
The mice were euthanized and the tumor weights were measured without sampling.

A further series relates to Hep3B tumor. The series is described as follows: In vivo efficacy study in Hep3B-FGF19 amplified mice. The settings on record: Compound 1 monotherapy. The procedure: (§1) A similar study as described above was carried out using Hep3B-FGF19 amplified mice. Tumor volume results are shown in (FIG. 10A). Compound 1 monotherapy induced Hep3B tumor shrinkage (100% regression, >20% CRs).

The nature of series [3]: Tolerability in Hep3B and LIX-066 tumor models. It is filed as in vivo. The procedure: All animals were monitored daily for clinical observation (animal mortality, appearance, spontaneous activity, body posture, and food and water intake. Any lesions and adverse reactions were recorded). Any animals showing signs of debilitation, marked body weight loss (>20%), cachexia or large tumors that would inhibit an animal's ability to eat and drink or mobility were euthanized immediately. Any animals with severely ulcerated, infected or severely hemorrhagic tumors, or tumors whose estimated weight exceed 20% of the body weight were euthanized.
as §1

Series [4] is described as follows: Body weight in Huh-7 xenograft study. The note with it: palbociclib 90 mg/kg group, day fourteen. The procedure:
Female Balb/c nude mice (Mus Musculus) between six and eight weeks old and weighing 18 to 20 g were used to evaluate the therapeutic efficacy of palbociclib and Compound 1 as monotherapies and in combination in Huh-7 liver cancer xenograft models. The tumor cells were maintained in vitro as a monolayer culture in DMEM medium supplemented with 10% heat inactivated fetal bovine serum at 37° C. in a 5% CO2 atmosphere. The tumor cells were routinely subcultured twice weekly by trypsin-EDTA treatment. The cells growing in an exponential growth phase were harvested and counted for tumor inoculation.
Palbociclib treated animals were supplied with sunflower seeds to mitigate body weight loss on and after day eight per the sponsor's approval.

For series [5], the system named is HCC cell lines with an intact FGFR4 signaling pathway (FGFR4, FGF19, and KLB). The note with it: Hagel et al., Cancer Discovery (2015); cited from earlier work.

Consider `C=CC(=O)N[C@H]1CCOC[C@H]1Nc1ncc2cc(-c3c(Cl)c(OC)cc(OC)c3Cl)ccc2n1` [Compound 1, N-((3S,4S)-3-((6-(2,6-dichloro-3,5-dimethoxyphenyl)quinazolin-2-yl)amino)tetrahydro-2H-pyran-4-yl)acrylamide], for which the T/C value in series [1] (Compound 1 30 mg/kg bid) was determined as 57%; in series [1] (Compound 1 100 mg/kg bid), 24%; in series [1] (Compound 1 200 mg/kg bid), 7%. The average tumor size in series [1] (Compound 1 30 mg/kg bid) is 1612 mm^3; in series [1] (Compound 1 100 mg/kg bid), 690 mm^3; in series [1] (Compound 1 200 mg/kg bid) it was 198 mm^3. The average tumor volume is recorded as 262.87 mm^3 in series [2] (Compound 1 30 mg/kg), 168.03 mm^3 in series [2] (Compound 1 100 mg/kg) and 112.22 mm^3 in series [2] (Compound 1 200 mg/kg). Moreover, in the series on Hep3B tumor, the CRs is more than 20%. Moreover, in the series on Hep3B tumor, the “Hep3B tumor shrinkage (regression)” value is 100%. In addition, in series [3], the tolerability entry was “well tolerated”.
`CC(=O)c1c(C)c2cnc(Nc3ccc(N4CCNCC4)cn3)nc2n(C2CCCC2)c1=O` [palbociclib, 6-acetyl-8-cyclopentyl-5-methyl-2-{[5-(1-piperazinyl)-2-pyridinyl]amino}pyrido[2,3-d]pyrimidin-7(8H)-one, reference compound]: in series [1] (palbociclib 45 mg/kg), the T/C value worked out at 71% and the average tumor size was found to be 1992 mm^3. In series [1] (palbociclib 90 mg/kg), this compound came in with a T/C value of 41% and an average tumor size of 1169 mm^3. The “body weight loss (same animal, euthanized)” value in series [4] is more than 20%.
For `C=CC(=O)Nc1cccc(C)c1Nc1ncc2cc(-c3c(Cl)c(OC)cc(OC)c3Cl)ccc2n1` [Compound 2, N-(2-((6-(2,6-dichloro-3,5-dimethoxyphenyl)quinazolin-2-yl)amino)-3-methylphenyl)acrylamide], the “proliferation in HCC cell lines” value in series [5] is recorded as “inhibit proliferation”.
